PubChem BioAssay (NCI)
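Test compounds were applied to cells in 96-well plates for 48 hours at 5 doses. TGI: concentration producing complete growth inhibition.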

How the values were obtained:
Assay in all cases: inhibition of tumour cell growth, NCI panel, 48 h
786-0 renal = test system: 786-0 renal
A498 renal = test system: A498 renal
A549 NSCLC = test system: A549 NSCLC
ACHN renal = test system: ACHN renal
BT-549 breast = test system: BT-549 breast
CAKI-1 renal = test system: CAKI-1 renal
CCRF-CEM leukemia = test system: CCRF-CEM leukemia
COLO 205 colon = test system: COLO 205 colon
DLD-1 colon = test system: DLD-1 colon
DMS 114 small cell lung = test system: DMS 114 small cell lung
DMS 273 small cell lung = test system: DMS 273 small cell lung
DU-145 prostate = test system: DU-145 prostate
EKVX NSCLC = test system: EKVX NSCLC
HCC-2998 colon = test system: HCC-2998 colon
HCT-116 colon = test system: HCT-116 colon
HCT-15 colon = test system: HCT-15 colon
HL-60(TB) leukemia = test system: HL-60(TB) leukemia
HOP-62 NSCLC = test system: HOP-62 NSCLC
HOP-92 NSCLC = test system: HOP-92 NSCLC
HS 578T breast = test system: HS 578T breast
HT29 colon = test system: HT29 colon
IGROV1 ovarian = test system: IGROV1 ovarian
K-562 leukemia = test system: K-562 leukemia
KM12 colon = test system: KM12 colon
KM20L2 colon = test system: KM20L2 colon
LOX IMVI melanoma = test system: LOX IMVI melanoma
LXFL 529 NSCLC = test system: LXFL 529 NSCLC
M14 melanoma = test system: M14 melanoma
M19-MEL melanoma = test system: M19-MEL melanoma
MALME-3M melanoma = test system: MALME-3M melanoma
MCF7 breast = test system: MCF7 breast
MDA-MB-231 breast = test system: MDA-MB-231 breast
MDA-MB-435 = test system: MDA-MB-435
MDA-N = test system: MDA-N
MOLT-4 leukemia = test system: MOLT-4 leukemia
NCI-H226 lung = test system: NCI-H226 lung
NCI-H23 lung = test system: NCI-H23 lung
NCI-H460 lung = test system: NCI-H460 lung
NCI-H522 lung = test system: NCI-H522 lung
NCI/ADR-RES ovarian = test system: NCI/ADR-RES ovarian
OVCAR-3 ovarian = test system: OVCAR-3 ovarian
OVCAR-4 ovarian = test system: OVCAR-4 ovarian
OVCAR-5 ovarian = test system: OVCAR-5 ovarian
OVCAR-8 ovarian = test system: OVCAR-8 ovarian
PC-3 prostate = test system: PC-3 prostate
RPMI-8226 leukemia = test system: RPMI-8226 leukemia
RXF 393 renal = test system: RXF 393 renal
SF-268 CNS = test system: SF-268 CNS
SF-295 CNS = test system: SF-295 CNS
SF-539 CNS = test system: SF-539 CNS
SK-MEL-2 melanoma = test system: SK-MEL-2 melanoma
SK-MEL-28 melanoma = test system: SK-MEL-28 melanoma
SK-MEL-5 melanoma = test system: SK-MEL-5 melanoma
SK-OV-3 ovarian = test system: SK-OV-3 ovarian
SN12C renal = test system: SN12C renal
SNB-19 CNS = test system: SNB-19 CNS
SNB-75 CNS = test system: SNB-75 CNS
SNB-78 CNS = test system: SNB-78 CNS
SR leukemia = test system: SR leukemia
SW-620 colon = test system: SW-620 colon
T-47D breast = test system: T-47D breast
TK-10 renal = test system: TK-10 renal
U251 CNS = test system: U251 CNS
UACC-257 melanoma = test system: UACC-257 melanoma
UACC-62 melanoma = test system: UACC-62 melanoma
UO-31 renal = test system: UO-31 renal
XF 498 CNS = test system: XF 498 CNS

CC12C=CC(=O)C=C1CCC1C3CCC(O)(C(=O)CO)C3(C)CC(O)C12F (stereo not given)
TGI (786-0 renal): > 100 µM | TGI (A498 renal): > 100 µM | TGI (A549 NSCLC): > 100 µM | TGI (ACHN renal): > 100 µM | TGI (BT-549 breast): > 100 µM | TGI (CAKI-1 renal): > 100 µM | TGI (CCRF-CEM leukemia): > 100 µM | TGI (COLO 205 colon): > 100 µM | TGI (DLD-1 colon): > 100 µM | TGI (DMS 114 small cell lung): > 100 µM | TGI (DMS 273 small cell lung): > 100 µM | TGI (DU-145 prostate): > 100 µM | TGI (EKVX NSCLC): > 100 µM | TGI (HCC-2998 colon): > 100 µM | TGI (HCT-116 colon): > 100 µM | TGI (HCT-15 colon): > 100 µM | TGI (HL-60(TB) leukemia): > 100 µM | TGI (HOP-62 NSCLC): > 100 µM | TGI (HOP-92 NSCLC): > 100 µM | TGI (HS 578T breast): > 100 µM | TGI (HT29 colon): > 100 µM | TGI (IGROV1 ovarian): > 100 µM | TGI (K-562 leukemia): > 100 µM | TGI (KM12 colon): > 100 µM | TGI (KM20L2 colon): > 100 µM | TGI (LOX IMVI melanoma): > 100 µM | TGI (LXFL 529 NSCLC): > 100 µM | TGI (M14 melanoma): > 100 µM | TGI (M19-MEL melanoma): > 100 µM | TGI (MALME-3M melanoma): > 100 µM | TGI (MCF7 breast): > 100 µM | TGI (MDA-MB-231 breast): > 100 µM | TGI (MDA-MB-435): > 100 µM | TGI (MDA-N): > 100 µM | TGI (MOLT-4 leukemia): > 100 µM | TGI (NCI-H226 lung): > 100 µM | TGI (NCI-H23 lung): > 100 µM | TGI (NCI-H460 lung): > 100 µM | TGI (NCI-H522 lung): > 100 µM | TGI (NCI/ADR-RES ovarian): > 100 µM | TGI (OVCAR-3 ovarian): > 100 µM | TGI (OVCAR-4 ovarian): > 100 µM | TGI (OVCAR-5 ovarian): > 100 µM | TGI (OVCAR-8 ovarian): > 100 µM | TGI (PC-3 prostate): > 100 µM | TGI (RPMI-8226 leukemia): > 100 µM | TGI (RXF 393 renal): > 100 µM | TGI (SF-268 CNS): > 100 µM | TGI (SF-295 CNS): > 100 µM | TGI (SF-539 CNS): > 100 µM | TGI (SK-MEL-2 melanoma): > 100 µM | TGI (SK-MEL-28 melanoma): > 100 µM | TGI (SK-MEL-5 melanoma): > 100 µM | TGI (SK-OV-3 ovarian): > 100 µM | TGI (SN12C renal): > 100 µM | TGI (SNB-19 CNS): > 100 µM | TGI (SNB-75 CNS): > 100 µM | TGI (SNB-78 CNS): > 100 µM | TGI (SR leukemia): > 100 µM | TGI (SW-620 colon): > 100 µM | TGI (T-47D breast): > 100 µM | TGI (TK-10 renal): > 100 µM | TGI (U251 CNS): > 100 µM | TGI (UACC-257 melanoma): > 100 µM | TGI (UACC-62 melanoma): > 100 µM | TGI (UO-31 renal): > 100 µM | TGI (XF 498 CNS): > 100 µM

Cc1cc(N(CCC#N)CCC#N)ccc1/C(N=Nc1cccc(Cl)c1)=N/NC(=O)c1cc(Cl)ccc1O
TGI (786-0 renal): 64.8 µM | TGI (A498 renal): 53.1 µM | TGI (A549 NSCLC): 75.7 µM | TGI (ACHN renal): 42 µM | TGI (BT-549 breast): 62 µM | TGI (CAKI-1 renal): 44.8 µM | TGI (CCRF-CEM leukemia): 37.2 µM | TGI (COLO 205 colon): 17.8 µM | TGI (DU-145 prostate): 42.6 µM | TGI (EKVX NSCLC): 39.6 µM | TGI (HCC-2998 colon): 26.2 µM | TGI (HCT-116 colon): 44.4 µM | TGI (HCT-15 colon): 24.4 µM | TGI (HL-60(TB) leukemia): 9.06 µM | TGI (HOP-62 NSCLC): 62 µM | TGI (HOP-92 NSCLC): 43.1 µM | TGI (HS 578T breast): > 100 µM | TGI (HT29 colon): 44.2 µM | TGI (IGROV1 ovarian): 10.2 µM | TGI (K-562 leukemia): > 100 µM | TGI (KM12 colon): 35.4 µM | TGI (LOX IMVI melanoma): 42.2 µM | TGI (M14 melanoma): 49.6 µM | TGI (MALME-3M melanoma): 28.1 µM | TGI (MCF7 breast): > 100 µM | TGI (MDA-MB-231 breast): 49 µM | TGI (MDA-MB-435): > 100 µM | TGI (MDA-N): > 100 µM | TGI (MOLT-4 leukemia): 34.8 µM | TGI (NCI-H226 lung): 84.2 µM | TGI (NCI-H23 lung): 31.1 µM | TGI (NCI-H460 lung): 31.9 µM | TGI (NCI-H522 lung): 49 µM | TGI (NCI/ADR-RES ovarian): 54.6 µM | TGI (OVCAR-3 ovarian): 16.5 µM | TGI (OVCAR-4 ovarian): 55.8 µM | TGI (OVCAR-5 ovarian): > 100 µM | TGI (OVCAR-8 ovarian): 49.2 µM | TGI (PC-3 prostate): 46.2 µM | TGI (RPMI-8226 leukemia): 63.5 µM | TGI (RXF 393 renal): 35.3 µM | TGI (SF-268 CNS): 75.2 µM | TGI (SF-295 CNS): > 100 µM | TGI (SF-539 CNS): > 100 µM | TGI (SK-MEL-2 melanoma): 36.1 µM | TGI (SK-MEL-28 melanoma): 49.9 µM | TGI (SK-MEL-5 melanoma): 26.9 µM | TGI (SK-OV-3 ovarian): 90.6 µM | TGI (SN12C renal): 61.3 µM | TGI (SNB-19 CNS): > 100 µM | TGI (SNB-75 CNS): 42.1 µM | TGI (SR leukemia): > 100 µM | TGI (SW-620 colon): > 100 µM | TGI (T-47D breast): 60.6 µM | TGI (TK-10 renal): 59.7 µM | TGI (U251 CNS): > 100 µM | TGI (UACC-257 melanoma): 31.2 µM | TGI (UACC-62 melanoma): 28.9 µM | TGI (UO-31 renal): 55.6 µM

Cc1cc[n+]2c(c1)-c1cc(C)cc[n+]1CC2
TGI (786-0 renal): > 100 µM | TGI (A498 renal): > 100 µM | TGI (A549 NSCLC): > 100 µM | TGI (ACHN renal): > 100 µM | TGI (BT-549 breast): > 100 µM | TGI (CAKI-1 renal): > 100 µM | TGI (CCRF-CEM leukemia): > 100 µM | TGI (COLO 205 colon): > 86.1 µM | TGI (DU-145 prostate): > 100 µM | TGI (EKVX NSCLC): > 100 µM | TGI (HCC-2998 colon): > 100 µM | TGI (HCT-116 colon): > 100 µM | TGI (HCT-15 colon): > 100 µM | TGI (HL-60(TB) leukemia): > 100 µM | TGI (HOP-62 NSCLC): > 100 µM | TGI (HOP-92 NSCLC): > 100 µM | TGI (HS 578T breast): > 100 µM | TGI (HT29 colon): > 100 µM | TGI (IGROV1 ovarian): > 100 µM | TGI (K-562 leukemia): > 100 µM | TGI (KM12 colon): > 100 µM | TGI (LOX IMVI melanoma): > 100 µM | TGI (M14 melanoma): > 100 µM | TGI (MALME-3M melanoma): > 100 µM | TGI (MCF7 breast): > 100 µM | TGI (MDA-MB-231 breast): > 100 µM | TGI (MDA-MB-435): > 100 µM | TGI (MDA-N): > 100 µM | TGI (MOLT-4 leukemia): > 100 µM | TGI (NCI-H226 lung): > 100 µM | TGI (NCI-H23 lung): > 100 µM | TGI (NCI-H460 lung): > 100 µM | TGI (NCI-H522 lung): > 92.9 µM | TGI (NCI/ADR-RES ovarian): > 100 µM | TGI (OVCAR-3 ovarian): > 100 µM | TGI (OVCAR-4 ovarian): > 100 µM | TGI (OVCAR-5 ovarian): > 100 µM | TGI (OVCAR-8 ovarian): > 100 µM | TGI (PC-3 prostate): > 100 µM | TGI (RPMI-8226 leukemia): > 100 µM | TGI (RXF 393 renal): > 100 µM | TGI (SF-268 CNS): > 100 µM | TGI (SF-295 CNS): > 100 µM | TGI (SF-539 CNS): > 100 µM | TGI (SK-MEL-2 melanoma): > 100 µM | TGI (SK-MEL-28 melanoma): > 100 µM | TGI (SK-MEL-5 melanoma): > 100 µM | TGI (SK-OV-3 ovarian): > 100 µM | TGI (SN12C renal): > 100 µM | TGI (SNB-19 CNS): > 100 µM | TGI (SNB-75 CNS): > 100 µM | TGI (SR leukemia): > 100 µM | TGI (SW-620 colon): > 100 µM | TGI (T-47D breast): > 100 µM | TGI (TK-10 renal): > 100 µM | TGI (U251 CNS): > 100 µM | TGI (UACC-257 melanoma): > 100 µM | TGI (UACC-62 melanoma): > 100 µM | TGI (UO-31 renal): > 100 µM
